# Source: patent US12616697B2, “Methods of treatment with myosin modulator” (MyoKardia, Inc., priority 2020, dated 2026)
# Legend:
# [1] = system: isolated adult rat ventricular myocytes; test: Counteraction of mavacamten effects in isolated myocytes in vitro; assay type: cell-based
# Excerpt: (§1) Additional supportive measures, e.g., intravenous volume supplementation and/or the use of arterial vasoconstrictor agents (a adrenergic agonists) may complement the use of a β adrenergic agonist.
# [2] = system: conscious Sprague-Dawley rats; test: Mavacamten-induced cardio-depression with positive inotropic challenges, echocardiography; assay type: in vivo, rat; settings: inotropic challenge 3 hrs after MAVA 4 mg/kg PO
# Method: Methods: The responsiveness of mavacamten-induced cardio-depression to positive inotropic challenges was assessed in a set of conscious Sprague-Dawley rats. In these animals, functional reserve was assessed via either dobutamine (+DOB, 10 ug/kg/min IV for 10 min, n=7) or levosimendan (+LEVO, 0.3 μmol/kg IV over […]; n=6) challenges given 3 hrs following a single-dose administration of MAVA (at 4 mg/kg, PO). Cardiac function/geometry were recorded and compared at three separate time-points/days: prior to dosing (i.e., at baseline) and at 3 hrs post-dosing both before as well as during the inotropic challenge; in order to account for the levosimendan-induced changes in loading conditions, an additional echocardiographic examination was performed following acute preload-restoration in LEVO-treated rats (+LEVO/F, 0.9% NaCl at 30 mL/kg/hr IV).
# In these experiments, left-ventricular fractional shortening (FS), an index of systolic performance, as well as LV dimensions/volumes and heart rates were measured using a high-frequency transducer and parasternal long-axis transthoracic views (Vevo2100, VisualSonic). FS was defined as the end-diastole normalized change in internal dimensions/diameter of the left ventricle between end-systole (LVESd) and end-diastole (LVEDd) (i.e., FS=100·[LVEDd−LVESd]/LVEDd). LV volumes were derived assuming a Teichholz model (LVV=7·[2.4+LVid]−1·LVid3).
# anaesthetized rats = test: Counteraction of mavacamten effects in anaesthetized rats in vivo; set-up: species or system rat
# Excerpt: as §1
# [3] = system: conscious fully-instrumented dogs with normal cardiac function; test: Cardiac reserve under acute β-AR (dobutamine) challenges in conscious instrumented dogs; assay type: in vivo, dog; settings: before and under acute mavacamten treatment
# Method: In addition, the effects of MAVA (at 1.5 mg/kg PO, via gavage) on cardiac reserve were evaluated via acute β-AR challenges (dobutamime: 2, 5, and 10 ug/kg/min IV) in conscious fully-instrumented (LVPV group) dogs with normal cardiac function (n=8). These challenges were performed before/after dosing (+3-hour) in control- and MAVA-treated animals both under normal cardiac physiological conditions (n=4) and under (mild) concomitant cardio-depression induced via either selective β-AR blockade (+BB, metoprolol 0.5±0.1 mg/kg PO tid; n=4) or L-type Ca2+-channel blockade (+CCB, verapamil at 5±1 mg/kg PO tid; n=4); pharmacological blockades were established for 7 days prior to the MAVA treatment. Both peak and dose-responses were evaluated at steady state.
# Throughout these experiments, analog signals were digitally acquired (1000 Hz) and recorded continuously with a data acquisition/analysis system (IOX; EMKA Technologies). Heart rate (HR), end-systolic (ESP) and end-diastolic pressures (EDP), as well as the peak rates of pressure rise/decline (dP/dtmax and dP/dtmin), the contractility index (CI: dP/dt/P at dP/dtmax), and the time-constant of myocardial relaxation (tau1/2, time for 50% decay from dP/dtmin) were derived from the LV pressure signal. Meanwhile, the end-systolic (ESV) and end-diastolic volumes (EDV) were measured from the LV volume signal derived from the implanted myocardial crystals. LV volumes were derived assuming a Teichholz model, and stroke volume (SV=EDV−ESV), ejection fraction (EF=SV/EDV), as well as cardiac output (CO=SV·HR) were calculated; in a subset of animals, SV and CO values were verified from data derived from the implanted aortic flow […]. […] The slopes of the preload-recruitable stroke work (PRSW; stroke work vs. EDV) and the end-systolic pressure-volume relationships (ESPVR; end-systolic elastance, Ees) were derived by software using linear models (IOX; EMKA Technologies), and were used as load-independent inotropic indices. Ventricular load was estimated by the effective arterial elastance (Ea=ESP/SV). […]
# [4] = system: Yucatan mini-pigs with a heterozygous MYH7 R403Q mutation; test: Chronic MYK-581 in mini-pig genetic model of non-obstructed HCM (cMR imaging, invasive hemodynamics, dobutamine challenge); assay type: in vivo
# Method: The mini-pigs were treated for at least 12 weeks and were evaluated as shown in Schematic 1 below. […] After ˜14 weeks of treatment, all pigs underwent in vivo cMR imaging for the assessment of LV function and geometry, as well as of myocardial composition via of Late Gadolinium Enhancement (LGE) and T1 mapping techniques including extracellular volume (ECV) assessments. In addition, a subset of animals (MYK: n=6, CTRL: n=5) also underwent terminal invasive hemodynamics assessments, including cardiac output (CO, via thermodilution), load-independent systolic/diastolic function (via LV pressure-volume relationships), and β-adrenergic (β-AR) cardiac reserve (via dobutamine at 5 ug/kg/min IV).
# The mini-pig model can be obtained following the method disclosed in a presentation entitled “A Minipig Genetic Model of Hypertrophic Cardiomyopathy Uncovers the Pathophysiological Mechanisms of Disease Evolution”, by E. Green et al., at University of Iowa, Carver College of Medicine.
# [5] = biological target: T1, bovine cardiac synthetic myosin filaments (Bos taurus, UniProt Q9BE39); test: DRX/SRX ATPase rate and SRX population in cardiac synthetic myosin filaments; assay type: biochemical; settings: over a range of concentrations; the two compounds compared
# T1 construct: bovine cardiac synthetic myosin filaments; from tissue; host or cells: bovine heart (inferred from 'bovine cardiac'; the preparation is not described)
# T1 sequence (Q9BE39 whole entry): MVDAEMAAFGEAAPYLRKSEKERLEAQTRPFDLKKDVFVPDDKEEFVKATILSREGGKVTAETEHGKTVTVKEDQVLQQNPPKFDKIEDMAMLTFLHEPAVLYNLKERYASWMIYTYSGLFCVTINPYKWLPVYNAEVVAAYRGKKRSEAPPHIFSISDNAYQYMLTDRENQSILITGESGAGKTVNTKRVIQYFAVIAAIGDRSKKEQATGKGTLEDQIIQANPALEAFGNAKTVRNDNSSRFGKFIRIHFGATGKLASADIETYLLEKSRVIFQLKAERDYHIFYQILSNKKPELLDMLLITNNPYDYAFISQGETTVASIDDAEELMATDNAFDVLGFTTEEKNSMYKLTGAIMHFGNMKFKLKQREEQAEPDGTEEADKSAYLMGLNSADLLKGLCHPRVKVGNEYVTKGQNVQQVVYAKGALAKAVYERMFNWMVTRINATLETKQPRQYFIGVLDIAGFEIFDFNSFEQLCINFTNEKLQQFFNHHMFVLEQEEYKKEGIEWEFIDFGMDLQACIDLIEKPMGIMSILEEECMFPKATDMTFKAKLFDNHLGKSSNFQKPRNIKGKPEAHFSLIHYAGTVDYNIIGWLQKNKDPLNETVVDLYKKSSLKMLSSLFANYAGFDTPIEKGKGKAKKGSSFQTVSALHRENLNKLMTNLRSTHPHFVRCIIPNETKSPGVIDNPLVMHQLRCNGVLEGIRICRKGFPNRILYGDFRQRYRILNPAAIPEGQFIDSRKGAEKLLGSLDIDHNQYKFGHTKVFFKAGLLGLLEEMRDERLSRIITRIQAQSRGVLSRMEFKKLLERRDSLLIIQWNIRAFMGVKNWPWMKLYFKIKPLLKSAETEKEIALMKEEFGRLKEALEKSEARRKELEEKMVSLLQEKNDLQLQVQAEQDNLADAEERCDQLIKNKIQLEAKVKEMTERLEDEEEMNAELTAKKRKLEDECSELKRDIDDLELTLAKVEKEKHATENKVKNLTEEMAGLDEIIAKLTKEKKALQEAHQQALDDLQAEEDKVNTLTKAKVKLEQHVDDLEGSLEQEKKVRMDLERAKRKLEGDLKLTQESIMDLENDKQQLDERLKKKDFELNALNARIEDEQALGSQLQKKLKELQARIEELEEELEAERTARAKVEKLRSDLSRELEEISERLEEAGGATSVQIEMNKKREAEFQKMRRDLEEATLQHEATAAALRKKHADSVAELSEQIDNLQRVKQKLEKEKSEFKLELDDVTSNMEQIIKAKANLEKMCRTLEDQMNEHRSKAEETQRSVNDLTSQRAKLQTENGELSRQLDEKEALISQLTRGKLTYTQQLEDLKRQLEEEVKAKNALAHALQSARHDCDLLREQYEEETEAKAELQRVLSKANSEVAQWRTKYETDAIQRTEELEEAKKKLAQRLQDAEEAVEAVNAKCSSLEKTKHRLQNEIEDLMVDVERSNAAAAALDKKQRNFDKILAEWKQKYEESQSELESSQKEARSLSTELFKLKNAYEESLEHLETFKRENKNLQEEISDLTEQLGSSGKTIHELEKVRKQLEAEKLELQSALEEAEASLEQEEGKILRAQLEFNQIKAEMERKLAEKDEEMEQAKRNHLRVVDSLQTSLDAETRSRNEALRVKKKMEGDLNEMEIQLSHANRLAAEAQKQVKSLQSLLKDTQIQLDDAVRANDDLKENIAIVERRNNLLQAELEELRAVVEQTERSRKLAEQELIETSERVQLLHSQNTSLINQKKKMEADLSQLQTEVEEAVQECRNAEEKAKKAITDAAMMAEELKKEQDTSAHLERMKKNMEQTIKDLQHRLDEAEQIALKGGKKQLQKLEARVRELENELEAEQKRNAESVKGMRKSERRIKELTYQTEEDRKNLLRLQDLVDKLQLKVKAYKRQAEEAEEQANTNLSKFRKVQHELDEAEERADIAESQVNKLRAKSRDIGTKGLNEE
# T1 sequence (P85100 whole entry partner): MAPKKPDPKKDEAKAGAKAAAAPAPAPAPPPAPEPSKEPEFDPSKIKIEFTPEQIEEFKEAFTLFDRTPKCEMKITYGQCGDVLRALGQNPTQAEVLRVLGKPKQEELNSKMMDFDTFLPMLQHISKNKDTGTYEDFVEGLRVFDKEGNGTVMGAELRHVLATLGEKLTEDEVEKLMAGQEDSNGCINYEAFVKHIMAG
# T1 sequence (Q3SZE5 whole entry partner): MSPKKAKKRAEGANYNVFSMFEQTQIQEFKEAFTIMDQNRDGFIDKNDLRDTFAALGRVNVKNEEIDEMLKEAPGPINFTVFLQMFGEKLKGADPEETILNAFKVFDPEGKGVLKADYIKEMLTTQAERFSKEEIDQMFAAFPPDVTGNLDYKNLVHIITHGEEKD
structure (smiles),measurement,setting,value
CC(C)NCC(O)c1ccc(O)c(O)c1 (stereo not drawn) [isoproterenol],pharmacologic effects of mavacamten counteracted,[1],can be counteracted
C[C@@H]1CC(=O)NN=C1c1ccc(NN=C(C#N)C#N)cc1 [levosimendan],echocardiography-derived indices of systolic function after mavacamten,[2],successfully rescued/restored
CC(CCc1ccc(O)cc1)NCCc1ccc(O)c(O)c1 (stereo not drawn) [dobutamine],pharmacologic effects of mavacamten counteracted,anaesthetized rats,can be counteracted
same,echocardiography-derived indices of systolic function after mavacamten,[2],successfully rescued/restored
same,stroke-volume/cardiac output recruitments,[3],comparable stroke-volume/cardiac output recruitments
"CC(C)n1c(=O)cc(N[C@@H](C)c2cccc(F)c2)[nH]c1=O [MYK-581, (S)-6-((1-(3-fluorophenyl)ethyl)amino)-3-isopropylpyrimidine-2,4(1H,3H)-dione]",CO (cardiac output),[4]; chronic treatment,preserving CO
same,"CO change, β-AR cardiac reserve","[4]; dobutamine challenge, control +26±2",+60±8%
same,T1-times,[4]; vs control,lower T1-times
same,DRX ATPase rate and SRX ATPase Rate (as a fraction of control),[5],similar
